Organism: Rattus norvegicus
Experiment: DrugMatrix - Regimen: Daily Repeat
Type: toxicity, organism-based, Sprague-Dawley
Set-up: regimen Daily Repeat, gender Male, age 6-8 weeks
Conditions: in vivo, po, […], route oral GAVAGE; for ABSOLUTE BASOPHIL / ABSOLUTE EOSINOPHIL / ABSOLUTE LYMPHOCYTE / ABSOLUTE MONOCYTE / ABSOLUTE SEGMENTED NEUTROPHIL / BASOPHIL / EOSINOPHIL / ERYTHROCYTE COUNT / HEMATOCRIT / HEMOGLOBIN / LEUKOCYTE COUNT / LYMPHOCYTE / MEAN CORPUSCULAR HEMOGLOBIN / MEAN CORPUSCULAR HEMOGLOBIN CONCENTRATION / MEAN CORPUSCULAR VOLUME / MONOCYTE / NEUTROPHIL / NUCLEATED RED BLOOD CELLS / PLATELET COUNT: tissue Blood; for ALANINE AMINOTRANSFERASE / ALBUMIN / ALKALINE PHOSPHATASE / ASPARTATE AMINOTRANSFERASE / BLOOD UREA NITROGEN / CARBON DIOXIDE / CHLORIDE / CHOLESTEROL / CREATINE PHOSPHOKINASE / CREATININE / GLUCOSE / LACTATE DEHYDROGENASE / LIPASE / PHOSPHORUS / POTASSIUM / SODIUM / TOTAL BILIRUBIN / TOTAL PROTEIN / URIC ACID: tissue Plasma
[1] = 30 mg/kg, dose level Low, time 7 day
[2] = 60 mg/kg, 72 h, dose level High, time 3 day
[3] = 60 mg/kg, dose level High, time 7 day

With `S=C=Nc1cccc2ccccc12` [1-NAPHTHYLISOTHIOCYANATE] the “ABSOLUTE BASOPHIL” value [1] was 0 CELLS/uL, the “ABSOLUTE EOSINOPHIL” value [1] was 0 CELLS/uL and the “ABSOLUTE LYMPHOCYTE” value [1] was 18648 CELLS/uL. For the same molecule, the “ABSOLUTE MONOCYTE” value [1] was 658.33 CELLS/uL, the “ABSOLUTE SEGMENTED NEUTROPHIL” value [1] was 6027 CELLS/uL and the BASOPHIL [1] was 0%. The EOSINOPHIL [1] was 0%, the “ERYTHROCYTE COUNT” value [1] was 5.54 x10E6/uL and the HEMATOCRIT [1] was 31.6%. For the same molecule, the HEMOGLOBIN [1] was 13.02 G/DL, the “LEUKOCYTE COUNT” value [1] was 25.33 x10E3/uL and the LYMPHOCYTE [1] was 74.17%. The “MEAN CORPUSCULAR HEMOGLOBIN” value [1] was 23.55 pg, the “MEAN CORPUSCULAR HEMOGLOBIN CONCENTRATION” value [1] was 41.2 G/DL and the “MEAN CORPUSCULAR VOLUME” value [1] was 57.07 fL. The MONOCYTE [1] was 2.33%, the NEUTROPHIL [1] was 23.5% and the “NUCLEATED RED BLOOD CELLS” value [1] was 0 /100WBC. The “PLATELET COUNT” value [1] was 1468.17 x10E3/uL, the “ALANINE AMINOTRANSFERASE” value [1] was 195.83 u/L and the ALBUMIN [1] was 3.78 G/DL. The “ALKALINE PHOSPHATASE” value [1] was 515.67 u/L, the “ASPARTATE AMINOTRANSFERASE” value [1] was 302 u/L and the “BLOOD UREA NITROGEN” value [1] was 11.83 mg/dL. The “CARBON DIOXIDE” value [1] was 27.67 mmol/L, the CHLORIDE [1] was 96.67 MEQ/L and the CHOLESTEROL [1] was 137 mg/dL. For the same molecule, the “CREATINE PHOSPHOKINASE” value [1] was 291.83 u/L, the CREATININE [1] was 0.18 mg/dL and the GLUCOSE [1] was 98.33 mg/dL. For the same molecule, the “LACTATE DEHYDROGENASE” value [1] was 164.67 u/L, the LIPASE [1] was 11 u/L and the PHOSPHORUS [1] was 8.68 mg/dL. For the same molecule, the POTASSIUM [1] was 6.99 MEQ/L, the SODIUM [1] was 139.38 MEQ/L and the “TOTAL BILIRUBIN” value [1] was 3.15 mg/dL. For the same molecule, the “TOTAL PROTEIN” value [1] was 6.52 G/DL, the “URIC ACID” value [1] was 0.93 mg/dL and the “ABSOLUTE BASOPHIL” value [2] was 0 CELLS/uL. For the same molecule, the “ABSOLUTE EOSINOPHIL” value [2] was 24.67 CELLS/uL, the “ABSOLUTE LYMPHOCYTE” value [2] was 8862.67 CELLS/uL and the “ABSOLUTE MONOCYTE” value [2] was 317.33 CELLS/uL. For the same molecule, the “ABSOLUTE SEGMENTED NEUTROPHIL” value [2] was 2312 CELLS/uL, the BASOPHIL [2] was 0% and the EOSINOPHIL [2] was 0.33%. The “ERYTHROCYTE COUNT” value [2] was 6.41 x10E6/uL, the HEMATOCRIT [2] was 39.08% and the HEMOGLOBIN [2] was 14.75 G/DL. The “LEUKOCYTE COUNT” value [2] was 11.52 x10E3/uL, the LYMPHOCYTE [2] was 77% and the “MEAN CORPUSCULAR HEMOGLOBIN” value [2] was 23 pg. The “MEAN CORPUSCULAR HEMOGLOBIN CONCENTRATION” value [2] was 37.77 G/DL, the “MEAN CORPUSCULAR VOLUME” value [2] was 60.88 fL and the MONOCYTE [2] was 2.5%. For the same molecule, the NEUTROPHIL [2] was 20.17%, the “NUCLEATED RED BLOOD CELLS” value [2] was 0.17 /100WBC and the “PLATELET COUNT” value [2] was 1204.67 x10E3/uL. The “ALANINE AMINOTRANSFERASE” value [2] was 183.5 u/L, the ALBUMIN [2] was 3.77 G/DL and the “ALKALINE PHOSPHATASE” value [2] was 566.83 u/L. The “ASPARTATE AMINOTRANSFERASE” value [2] was 458.5 u/L, the “BLOOD UREA NITROGEN” value [2] was 11.67 mg/dL and the “CARBON DIOXIDE” value [2] was 28.67 mmol/L. For the same molecule, the CHLORIDE [2] was 94.67 MEQ/L, the CHOLESTEROL [2] was 312 mg/dL and the “CREATINE PHOSPHOKINASE” value [2] was 420.5 u/L. The CREATININE [2] was 0.28 mg/dL, the GLUCOSE [2] was 125.17 mg/dL and the “LACTATE DEHYDROGENASE” value [2] was 229.33 u/L. It also gave an LIPASE [2] of 12.5 u/L, a PHOSPHORUS [2] of 8.75 mg/dL and a POTASSIUM [2] of 6.43 MEQ/L. For the same molecule, the SODIUM [2] was 140.67 MEQ/L, the “TOTAL BILIRUBIN” value [2] was 3.47 mg/dL and the “TOTAL PROTEIN” value [2] was 6.93 G/DL. For the same molecule, the “URIC ACID” value [2] was 0.85 mg/dL, the “ABSOLUTE BASOPHIL” value [3] was 0 CELLS/uL and the “ABSOLUTE EOSINOPHIL” value [3] was 0 CELLS/uL. For the same molecule, the “ABSOLUTE LYMPHOCYTE” value [3] was 17693.83 CELLS/uL, the “ABSOLUTE MONOCYTE” value [3] was 897.83 CELLS/uL and the “ABSOLUTE SEGMENTED NEUTROPHIL” value [3] was 12275 CELLS/uL. The BASOPHIL [3] was 0%, the EOSINOPHIL [3] was 0% and the “ERYTHROCYTE COUNT” value [3] was 5.43 x10E6/uL. The HEMATOCRIT [3] was 31.22%, the HEMOGLOBIN [3] was 12.83 G/DL and the “LEUKOCYTE COUNT” value [3] was 30.87 x10E3/uL. For the same molecule, the LYMPHOCYTE [3] was 60.83%, the “MEAN CORPUSCULAR HEMOGLOBIN” value [3] was 23.63 pg and the “MEAN CORPUSCULAR HEMOGLOBIN CONCENTRATION” value [3] was 41.02 G/DL. The “MEAN CORPUSCULAR VOLUME” value [3] was 57.68 fL, the MONOCYTE [3] was 2.67% and the NEUTROPHIL [3] was 36.5%. For the same molecule, the “NUCLEATED RED BLOOD CELLS” value [3] was 0 /100WBC, the “PLATELET COUNT” value [3] was 1574.83 x10E3/uL and the “ALANINE AMINOTRANSFERASE” value [3] was 179.83 u/L. For the same molecule, the ALBUMIN [3] was 3.78 G/DL, the “ALKALINE PHOSPHATASE” value [3] was 516 u/L and the “ASPARTATE AMINOTRANSFERASE” value [3] was 418 u/L. The “BLOOD UREA NITROGEN” value [3] was 12.33 mg/dL, the “CARBON DIOXIDE” value [3] was 26.67 mmol/L and the CHLORIDE [3] was 94 MEQ/L. For the same molecule, the CHOLESTEROL [3] was 384.5 mg/dL, the “CREATINE PHOSPHOKINASE” value [3] was 339.67 u/L and the CREATININE [3] was 0.1 mg/dL. The GLUCOSE [3] was 96.33 mg/dL, the “LACTATE DEHYDROGENASE” value [3] was 286.67 u/L and the LIPASE [3] was 12.17 u/L. It also gave a PHOSPHORUS [3] of 8.75 mg/dL, a POTASSIUM [3] of 6.62 MEQ/L and an SODIUM [3] of 137.88 MEQ/L. For the same molecule, the “TOTAL BILIRUBIN” value [3] was 8.2 mg/dL, the “TOTAL PROTEIN” value [3] was 6.48 G/DL and the “URIC ACID” value [3] was 0.87 mg/dL.

— ChEMBL document CHEMBL3885881, “DrugMatrix”
